What was measured:
Assay type in all cases: physicochemical
[1] = Stability and hygroscopicity of the crystalline form; conditions: statement in words, no data
[2] = Powder properties of the crystalline form (bulk and tapped density, compressibility, Hausner ratio)
[3] = Particle size distribution (PSD)
[4] = product of Example 1 (from isobutyl methyl ketone)

Question: What does the source list for CC(C)OC(=O)[C@H](C)N[P@](=O)(OC[C@H]1O[C@@H](n2ccc(=O)[nH]c2=O)[C@](C)(F)[C@@H]1O)Oc1ccccc1 [Sofosbuvir Form α]?
Answer: Hygroscopicity [1]: not hygroscopic; Stability of the crystalline form [1]: stable; Bulk Density [2]: 0.22 g/mL; Compressibility index [2]: 24.4; Hausner ratio [2]: 1.32; Tapped Density [2]: 0.29 g/mL; PSD: size of the 90% of the particles ([3]; general characterisation of the form): 10 to 50 μm; PSD d(0.1) [3, 4]: 1.831 μm; PSD d(0.5) [3, 4]: 5.263 μm; PSD d(0.9) [3, 4]: 20.369 μm

— patent US9845335B2, “Sofosbuvir in crystalline form and process for its preparation” (HC-PHARMA AG, priority 2014, dated 2017)
